# Measured values as given in patent US20020081684A1, “Method and nucleotide sequence for transforming microorganisms” (priority 1995, published 2002).
# Experiments:
# [1] = target: T1, L-malic acid carrier in S. pombe (Schizosaccharomyces pombe, UniProt P50537); conditions: Sousa et al. (1992); cited from earlier work
# T1 construct: host or cells: S. pombe cells (per the assay title)
# T1 sequence (P50537 1-438): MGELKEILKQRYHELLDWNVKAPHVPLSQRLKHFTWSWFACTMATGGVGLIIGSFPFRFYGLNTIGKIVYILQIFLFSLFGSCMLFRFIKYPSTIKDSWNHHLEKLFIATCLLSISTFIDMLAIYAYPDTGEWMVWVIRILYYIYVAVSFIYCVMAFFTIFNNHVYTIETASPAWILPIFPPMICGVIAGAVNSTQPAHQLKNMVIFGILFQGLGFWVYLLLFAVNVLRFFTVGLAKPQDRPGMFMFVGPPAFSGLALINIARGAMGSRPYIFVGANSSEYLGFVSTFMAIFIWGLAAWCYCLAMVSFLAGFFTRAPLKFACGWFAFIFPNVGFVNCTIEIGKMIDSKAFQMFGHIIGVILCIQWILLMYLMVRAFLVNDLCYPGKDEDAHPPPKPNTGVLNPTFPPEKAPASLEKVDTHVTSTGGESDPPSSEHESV
# S. pombe Mae1 permease = target: T2, S. pombe Mae1 permease (Schizosaccharomyces pombe, UniProt P50537); assay: Transport assays for 14C-labelled L-malic, succinic, malonic and α-ketoglutaric acids in S. pombe wild-type, mae1- mutant and complemented mutant; format: cell-based; conditions: 14C-labelled acid, 0.1 M KCl pH 3.5, 30° C.
# T2 construct: endogenous in cells; host or cells: S. pombe 972 leu1-32 h- (wild type); also the mae1- mutant complemented with the 3.4 kb SmaI genomic mae1 fragment in pRS315
# T2 sequence (P50537 1-438): T1 sequence (P50537 1-438)
# Description: Yeast cells in the logarithmic growth phase (OD of 1.2 at A595) were harvested and washed three times with 0.1 M KCI (pH 3.5). The cells were resuspended in 4 ml 0.1 M KCI (pH 3.5) and stored at 4° C. Transport assays were completed within 3 h. The cell suspensions were pre-incubated for 5 min in a shaker water bath at 30° C. at 100 rpm. Assays were initiated by adding 25 μl of ^14C-labelled L malate (45 μCi/μmol) (Amersham), 100 μl of succinic acid (42 μCi/μmol) (ICN), 100 μl malonic add (56.7 μCi/μmol) (Du Pont) or 100 μl a-ketoglutarate (51.8 μCi/μmol) (Du Pont). A 0.5-ml sample was withdrawn at 10, 20, 40, 60, and 120 sec intervals, rapidly filtered through 0.45 μm membranes (Mllipore Corporation, Bedford, Mass.), and immediately washed three times with 5 ml amounts of ice-cold 0.1 M KCI (pH 3.5). Filters containing the cells were oven-dried at 50° C. and placed in scintillation vials containing 5 ml of scintillation reaction mixture (Boehringer Mannheim, Mannheim, Germany). Pre-boiled (5 min) cells were used to determine non-specific binding of [^14C] malate, succinate, malonate and α-ketoglutarate to the yeast cells.
Compound,inhibition of initial uptake rates of L-malic acid [1],transport in the mae1-mutant complemented with the 3.4kb Sma1 fragment containing the mae1 gene (S. pombe Mae1 permease)
O=C(O)C[C@@H](O)C(=O)O [D-malic acid],competitive inhibition,–
O=C(O)C[C@H](O)C(=O)O [L-malic acid],–,fully restored
O=C(O)/C=C/C(=O)O [fumaric acid],competitive inhibition,–
O=C(O)/C=C\C(=O)O [maleic acid],competitive inhibition,–
O=C(O)CC(=O)O [malonic acid],competitive inhibition,fully restored
O=C(O)CC(=O)C(=O)O [oxaloacetic acid],competitive inhibition,–
O=C(O)CCC(=O)O [succinic acid],competitive inhibition,fully restored
